Experimental data from US9505786B2, “Substituted annulated triazines and use thereof” (BAYER INTELLECTUAL PROPERTY GMBH, priority 2012, dated 2016).
pIC50: −log10 of the molar value.

Assays:
[1] = molecular target: human phosphodiesterase 5 (PDE 5) (Homo sapiens (Human), UniProt O76074); assay: Inhibition of human phosphodiesterase 5 (PDE 5), SPA assay; type: biochemical; conditions: PDE 5 preparation from human platelets, [8-3H] cGMP substrate
Method: B-6. Inhibition of Human Phosphodiesterase 5 (PDE 5)
PDE 5 preparations are obtained from human platelets by disruption (Microfluidizer®, 800 bar, 3 passes), followed by centrifugation (75 000 g, 60 min, 4° C.) and ion exchange chromatography of the supernatant on a Mono Q 10/10 column (linear sodium chloride gradient, elution with a 0.2-0.3M solution of sodium chloride in buffer (20 mM Hepes pH 7.2, 2 mM magnesium chloride). Fractions having PDE 5 activity are combined (PDE 5 preparation) and stored at −80° C.
To determine their in vitro action on human PDE 5, the test substances are dissolved in 100% DMSO and serially diluted. Typically, dilution series (1:3) from 200 μM to 0.091 μM are prepared (resulting final concentrations in the test: 4 μM to 0.0018 μM). In each case 2 μl of the diluted substance solutions are placed into the wells of microtitre plates (Isoplate-96/200W; Perkin Elmer). Subsequently, 50 μl of a dilution of the above-described PDE 5 preparation are added. The dilution of the PDE 5 preparation is chosen such that during the later incubation less than 70% of the substrate are converted (typical dilution: 1:100; dilution buffer: 50 mM Tris/hydrochloric acid pH 7.5, 8.3 mM magnesium chloride, 1.7 mM EDTA, 0.2% BSA). The substrate, [8-^3H] cyclic guanosine-3′,5′-monophosphate (1 μCi/μl; Perkin Elmer) is diluted 1:2000 with assay buffer (50 mM tris/hydrochloric acid pH 7.5, 8.3 mM magnesium chloride, 1.7 mM EDTA) to a concentration of 0.0005 μCi/μl. By addition of 50 μl (0.025 μCi) of the diluted substrate, the enzyme reaction is finally started. The test mixtures are incubated at room temperature for 60 min and the reaction is stopped by adding 25 μl of a suspension of 18 mg/ml yttrium scintillation proximity beads in water (phosphodiesterase beads for SPA assays, RPNQ 0150, Perkin Elmer). The microtitre plates are sealed with a film and left to stand at room temperature for 60 min. Subsequently, the plates are analysed for 30 s per well in a Microbeta scintillation counter (Perkin Elmer). IC50 values are determined using the graphic plot of the substance concentration against percentage PDE 5 inhibition.

[2] = tested on: recombinant guanylate cyclase reporter cell line; assay: Effect on a recombinant guanylate cyclase reporter cell line; type: cell-based
Method: B-2. Effect on a Recombinant Guanylate Cyclase Reporter Cell Line
The cellular activity of the compounds according to the invention is determined using a recombinant guanylate cyclase reporter cell line, as described in F. Wunder et al., Anal. Biochem. 339, 104-112 (2005).

[3] = tested on: aorta rings; assay: Vasorelaxant effect in vitro (phenylephrine-contracted aorta rings); conditions: Oryctolagus cuniculus, rabbit aorta rings, organ bath, phenylephrine contraction; read-out: IC50 (concentration needed to reduce the phenylephrine contraction by 50%)
Method: B-1. Vasorelaxant Effect In Vitro
Rabbits are stunned by a blow to the neck and exsanguinated. The aorta is removed, freed from adhering tissue and divided into rings of a width of 1.5 mm. The rings are placed individually under an initial tension in 5 ml organ baths with Krebs-Henseleit solution which is at 37° C., is gassed with carbogen and has the following composition (in each case mM): sodium chloride: 119; potassium chloride: 4.8; calcium chloride dihydrate: 1; magnesium sulphate heptahydrate: 1.4; potassium dihydrogenphosphate: 1.2; sodium bicarbonate: 25; glucose: 10. The contractile force is determined with Statham UC2 cells, amplified and digitalized using A/D transducers (DAS-1802 HC, Keithley Instruments Munich), and recorded in parallel on linear recorders.
To produce a contraction, phenylephrine is added to the bath cumulatively in increasing concentration. After several control cycles, the substance to be investigated is added in each further run in increasing dosage in each case, and the height of the contraction achieved is compared with the height of the contraction reached in the last preceding run. This is used to calculate the concentration needed to reduce the magnitude of the control value by 50% (IC50 value). The standard administration volume is 5 μl; the DMSO content in the bath solution corresponds to 0.1%.

| Structure (SMILES) | pIC50 [1] | MEC (minimum effective concentration) [2] | pIC50 [3] |
| --- | --- | --- | --- |
| NC1(C(F)(F)F)C(=O)Nc2nc(-c3nn(Cc4ccccc4F)c4ncccc34)ncc21 (stereo not drawn) [Example 1, 5-Amino-2-[1-(2-fluorobenzyl)-1H-pyrazolo[3,4-b]pyridin-3-yl]-5-(trifluoromethyl)-5,7-dihydro-6H-pyrrolo[2,3-d]pyrimidin-6-one] | 5.92 | 30 nM | 7.43 |
| O=C1Nc2nc(-c3nn(Cc4ccccc4F)c4ncc(F)cc34)nnc2C12CCCC2 [Example 9, 3′-[5-Fluoro-1-(2-fluorobenzyl)-1H-pyrazolo[3,4-b]pyridin-3-yl]spiro[cyclopentane-1,7′-pyrrolo[2,3-e][1,2,4]triazin]-6′(5′H)-one] | 5.70 | 30 nM | 6.70 |
| CCOc1ccc(-c2nc(-c3nn(Cc4ccccc4F)c4ncccc34)nc3c2C(C)(C)C(=O)N3)cn1 [Example 14, 4-(6-Ethoxypyridin-3-yl)-2-[1-(2-fluorobenzyl)-1H-pyrazolo[3,4-b]pyridin-3-yl]-5,5-dimethyl-5,7-dihydro-6H-pyrrolo[2,3-d]pyrimidin-6-one] | 5.70 | 300 nM | 6.38 |
| Cc1nc2c(cc1F)c(-c1ncc3c(n1)NC(=O)C3(C)C)nn2Cc1ccccc1F [Example 20, 2-[5-Fluoro-1-(2-fluorobenzyl)-6-methyl-1H-pyrazolo[3,4-b]pyridin-3-yl]-5,5-dimethyl-5,7-dihydro-6H-pyrrolo[2,3-d]pyrimidin-6-one] | 6.04 | 100 nM | 6.46 |
| CCOC(=O)C1(C)C(=O)Nc2nc(-c3nn(Cc4ccccc4F)c4ncccc34)nc(I)c21 (racemic) [Example 43, (rac) Ethyl 2-[1-(2-fluorobenzyl)-1H-pyrazolo[3,4-b]pyridin-3-yl]-4-iodo-5-methyl-6-oxo-6,7-dihydro-5H-pyrrolo[2,3-d]pyrimidine-5-carboxylate] | 5.76 | 100 nM | 6.01 |
| CC1(C)C(=O)Nc2nc(-c3nn(Cc4ccccc4F)c4ncccc34)nc(-c3ccn[nH]3)c21 [Example 15, 2-[1-(2-Fluorobenzyl)-1H-pyrazolo[3,4-b]pyridin-3-yl]-5,5-dimethyl-4-(1H-pyrazol-5-yl)-5,7-dihydro-6H-pyrrolo[2,3-d]pyrimidin-6-one] | 7.40 | 10 nM | 6.13 |
| NC1(C(F)(F)C(F)(F)F)C(=O)Nc2nc(-c3nn(Cc4ccccc4F)c4ncccc34)ncc21 (stereo not drawn) [Example 4, 5-Amino-2-[1-(2-fluorobenzyl)-1H-pyrazolo[3,4-b]pyridin-3-yl]-5-(pentafluoroethyl)-5,7-dihydro-6H-pyrrolo[2,3-d]pyrimidin-6-one] | 5.89 | 100 nM | 6.67 |
| C=CCC1(C)C(=O)Nc2nc(-c3nn(Cc4ccccc4F)c4ncccc34)nnc21 (racemic) [Example 28, (rac) 7-Allyl-3-[1-(2-fluorobenzyl)-1H-pyrazolo[3,4-b]pyridin-3-yl]-7-methyl-5,7-dihydro-6H-pyrrolo[2,3-e][1,2,4]triazin-6-one] | 6.51 | 30 nM | 6.68 |
| Cc1nc(C(C)C)sc1-c1nc(-c2nn(Cc3ccccc3F)c3ncccc23)nc2c1C(C)(C)C(=O)N2 [Example 37, 2-[1-(2-Fluorobenzyl)-1H-pyrazolo[3,4-b]pyridin-3-yl]-4-(2-isopropyl-4-methyl-1,3-thiazol-5-yl)-5,5-dimethyl-5,7-dihydro-6H-pyrrolo[2,3-d]pyrimidin-6-one] | 6.30 | 1000 nM | 5.84 |
| CC1(C)C(=O)Nc2nc(-c3nn(Cc4ccccc4F)c4ncccc34)nc(CCC(F)(F)F)c21 [Example 31, 2-[1-(2-Fluorobenzyl)-1H-pyrazolo[3,4-b]pyridin-3-yl]-5,5-dimethyl-4-(3,3,3-trifluoropropyl)-5,7-dihydro-6H-pyrrolo[2,3-d]pyrimidin-6-one] | 6.59 | 100 nM | 6.51 |
| Cc1nc(C)c(-c2nc(-c3nn(Cc4ccccc4F)c4ncccc34)nc3c2C(C)(C)C(=O)N3)s1 [Example 36, 4-(2,4-Dimethyl-1,3-thiazol-5-yl)-2-[1-(2-fluorobenzyl)-1H-pyrazolo[3,4-b]pyridin-3-yl]-5,5-dimethyl-5,7-dihydro-6H-pyrrolo[2,3-d]pyrimidin-6-one] | 5.96 | 100 nM | 6.66 |
| CC1(COCc2ccccc2)C(=O)Nc2nc(-c3nn(Cc4ccccc4F)c4ncc(F)cc34)nnc21 (racemic) [Example 6, 7-[(Benzyloxy)methyl]-3-[5-fluoro-1-(2-fluorobenzyl)-1H-pyrazolo[3,4-b]pyridin-3-yl]-7-methyl-5,7-dihydro-6H-pyrrolo[2,3-e][1,2,4]triazin-6-one (racemate)] | 5.96 | 100 nM | 6.61 |
| CC1(C)C(=O)Nc2nc(-c3nn(Cc4ccccc4F)c4ncccc34)nc(C#CC3CC3)c21 [Example 16, 4-(Cyclopropylethynyl)-2-[1-(2-fluorobenzyl)-1H-pyrazolo[3,4-b]pyridin-3-yl]-5,5-dimethyl-5,7-dihydro-6H-pyrrolo[2,3-d]pyrimidin-6-one] | 6.39 | 30 nM | 6.21 |
| CC1(C)C(=O)Nc2nc(-c3nn(Cc4ccccc4F)c4ncc(F)cc34)nc(CN)c21.O=CO [Example 44, 4-(Aminomethyl)-2-[5-fluoro-1-(2-fluorobenzyl)-1H-pyrazolo[3,4-b]pyridin-3-yl]-5,5-dimethyl-5,7-dihydro-6H-pyrrolo[2,3-d]pyrimidin-6-one formate] | 6.06 | 30 nM | 6.30 |
| CC1(CC2CC2)C(=O)Nc2nc(-c3nn(Cc4ccccc4F)c4ncc(F)cc34)nnc21 (racemic) [Example 5, 7-(Cyclopropylmethyl)-3-[5-fluoro-1-(2-fluorobenzyl)-1H-pyrazolo[3,4-b]pyridin-3-yl]-7-methyl-5,7-dihydro-6H-pyrrolo[2,3-e][1,2,4]triazin-6-one (racemate)] | 6.59 | 100 nM | 6.86 |
| CC1(C)C(=O)Nc2nc(-c3nn(Cc4ccccc4F)c4ncccc34)nc(/C=C\C3CC3)c21 [Example 18, 4-[(Z)-2-Cyclopropylvinyl]-2-[1-(2-fluorobenzyl)-1H-pyrazolo[3,4-b]pyridin-3-yl]-5,5-dimethyl-5,7-dihydro-6H-pyrrolo[2,3-d]pyrimidin-6-one] | 6.82 | 100 nM | 6.08 |
| COCCCc1nc(-c2nn(Cc3ccccc3F)c3ncccc23)nc2c1C(C)(C)C(=O)N2 [Example 46, 2-[1-(2-Fluorobenzyl)-1H-pyrazolo[3,4-b]pyridin-3-yl]-4-(3-methoxypropyl)-5,5-dimethyl-5,7-dihydro-6H-pyrrolo[2,3-d]pyrimidin-6-one] | 6.92 | 100 nM | 7.15 |
| COc1cccc(Cn2nc(-c3nnc4c(n3)NC(=O)C4(C)C)c3cc(F)cnc32)c1F [Example 11, 3-[5-Fluoro-1-(2-fluoro-3-methoxybenzyl)-1H-pyrazolo[3,4-b]pyridin-3-yl]-7,7-dimethyl-5,7-dihydro-6H-pyrrolo[2,3-e][1,2,4]triazin-6-one] | 6.60 | 300 nM | 6.63 |
